Tests used:
[1] = system: bone marrow cells of Paget's disease of bone patients; experiment: Osteoclast formation induced by 1α,25-dihydroxyvitamin D3 in bone marrow cultures from Paget's disease of bone patients; assay type: cell-based, human; settings: for osteoclast formation (average number of cells ± S.D.): Paget's marrow
Source text: (§1) Mononuclear cells were fractionated from bone marrow cells of healthy normal persons according to a method of Kurihara et al. (Endocrinology, vol. 126, 2733-2741 (1990)). Briefly, bone marrow cells were obtained from normal persons, a mononuclear cell fraction was collected by Hypaque-Ficoll density gradient centrifugation, the cell fraction was washed with α-Minimal Essential Media (α-MEM) 3 times, and the cells dispersed in α-MEM containing 10% fetal bovine serum. This mononuclear cell suspension was seeded in 100-mm tissue culture plates, the culture plate was kept for 90 minutes at 37° C. in a 4% CO2-air atmosphere, and the non-adherent cells were collected. The non-adherent mononuclear cells were dispersed into α-MEM culture medium containing 20% horse serum at 10^6 cells/ml, the cell suspension was seeded into 96-well multi plates at 100 μl/well.
The capacity of the compound 11 (23S isomer) to inhibit osteoclast formation induced by 1α,25-dihydroxyvitamin D3 was evaluated as follows: Various concentrations of 1α,25-dihydroxyvitamin D3, various concentrations of compound 11 ([…]) solution were added to each well. The culture medium was replaced twice weekly and the cultures continued for 3 weeks at 37° C. in an atmosphere of 4% CO2-air. Osteoclasts that formed were identified by their capacity to bind the 23C6 antibody. The nuclei were counter stained with methyl green. Cells that reacted with the 23C6 antibody and had 3 or more nuclei were scored as osteoclasts.
Bone marrow cells were obtained from involved bones of patients with Paget's disease of bone and processed and cultured as described above for normal bone cells. The cultures were treated in an identical manner with 1α,25-dihydroxyvitamin D3 and/or compound 11 (23S isomer) as described in Example 1.
Bone marrow cultures were performed as described in Example 1, with the exception that different types of vitamin D antagonists were added to at varying concentrations to bone marrow cultures stimulated with 1α,25-dihydroxyvitamin D3. The bone marrow cells were taken from involved bones of patients with Paget's disease of bone and the cultures were performed as described in Example 2. There are two diastereoisomers, based on the asymmetric carbon at the 23 position, in compounds 13 and 16. The isomer having the shorter retention time on reverse phase HPLC analysis was the more polar isomer and the isomer having the longer retention time was the less polar isomer.

[2] = system: vitamin D deficient rats; experiment: Bone resorption (serum calcium) induced by 1α,25-dihydroxyvitamin D3 in vitamin D deficient rats; assay type: in vivo, Wistar rats
Experimental: Four-week-old male Wistar rats purchased from Japan SLC (Shizuoka, in Japan) were used. The animals were kept in wire-net cages (three animals in a cage) and raised for 7 weeks with free access to a vitamin D-deficient diet (Ca, 0.0036%; P, 0.3%; Harlan Taklad Research Diet, Madison, Wis., U.S.A.) and drinking water (well water treated with hypochlorite of […]±0.2 ppm). Temperature was kept at 23±1° C. and the humidity at 55±10%. Five animals were used for each experimental group. The control animals received intravenously administered solvent (5% ethanol-0.1% Triton X-100-physiological saline solution), and the experimental animals were intravenously administered 1α,25-dihydroxyvitamin D3 at a dose of 0.25 μg/kg. For animals receiving vitamin D derivatives, compound 11 (23S isomer) was administered intravenously at a dose of 2 μg/kg, 10 μg/kg or 50 μg/kg, or the compound 11 (23S isomer) with or without 1α,25-dihydroxyvitamin D3 at a dose of 0.25 μg/kg. The volume was 2 ml/kg for each animal. 24 hours after administration, a blood sample was taken out from abdominal descending aorta under ether anesthesia, the serum was collected according to conventional methods, and the calcium concentration in the serum was measured. The calcium concentrations were measured according to OCPC-method (Am. J. Clin. Pathol., vol. 45, 290-296 (1966)) with an autoanalyzer (type 7070, manufactured by Hitachi Seisakusho).

[3] = system: bone marrow cells of normal persons; experiment: Osteoclast formation induced by 1α,25-dihydroxyvitamin D3 in normal human bone marrow cultures; assay type: cell-based; settings: for osteoclast formation (average number of cells ± S.D.): compound alone, normal marrow, 3 weeks
Source text: as §1, with “μl/well. The capacity of the compound 11 (23S isomer) to inhibit osteoclast formation induced by 1α,25-dihydroxyvitamin D3 was evaluated as follows: Various concentrations of 1α,25-dihydroxyvitamin D3, various concentrations of compound 11 (23S isomer) or a combination of 10^−8 M 1α,25-dihydroxyvitamin D3 solution and various concentrations of compound 11 (23S isomer) solution were added to each well. The culture medium was replaced twice weekly and the cultures continued for 3 weeks at 37° C. in an atmosphere of 4% CO2-air. Osteoclasts that formed were identified by their capacity to bind the 23C6 antibody. The nuclei were counter stained with methyl green. Cells that reacted with the 23C6 antibody and had 3 or more nuclei were scored as osteoclasts.” for “μl/well.”

[4] = 10^−10 M 1α,25-dihydroxyvitamin D3 + compound 10^−7 M
[5] = 10^−10 M 1α,25-dihydroxyvitamin D3 + compound 10^−8 M
[6] = 10^−10 M 1α,25-dihydroxyvitamin D3 + compound 10^−9 M
[7] = compound alone, Paget's marrow cultures

Question: For `C=C1CC(CC(C)C2CCC3C(=CC=C4CC(O)CC(O)C4=C)CCCC32C)CC1=O` (single isomer, unassigned; less polar) [compound 13 (less polar isomer)], which “osteoclast formation (average number of cells ± S.D.)” value [1, 4] is on record?
Answer: 14 ± 1 cells

Question: What about the “osteoclast formation (average number of cells ± S.D.)” value [1, 5] of the same molecule?
Answer: 70 ± 2 cells

Question: What about the “osteoclast formation (average number of cells ± S.D.)” value [1, 6] of the same molecule?
Answer: 127 ± 4 cells

Question: What about the “induction of osteoclast formation by the compound alone (in words)” value ([1]; Paget's marrow cultures) of the same molecule?
Answer: did not induce the osteoclast formation

Question: And the “osteoclast formation (average number of cells ± S.D.)” value ([1]; compound alone, 10^−7 M)?
Answer: 1 ± 1 cells

Question: And the “osteoclast formation (average number of cells ± S.D.)” value ([1]; compound alone, 10^−8 M)?
Answer: 6 ± 2 cells

Question: What about the “osteoclast formation (average number of cells ± S.D.)” value ([1]; compound alone, 10^−9 M) of the same molecule?
Answer: 7 ± 1 cells

Question: What about the “effect on basal osteoclast formation (in words)” value [1, 7] of the same molecule?
Answer: inhibited basal osteoclast formation

Question: For `C=C1CC(CC(C)C2CCC3C(=CC=C4CC(O)CC(O)C4=C)CCCC32C)CC1=O` (single isomer, unassigned; more polar) [compound 13 (more polar isomer)], which “osteoclast formation (average number of cells ± S.D.)” value [1, 4] is on record?
Answer: 31 ± 5 cells

Question: And the “osteoclast formation (average number of cells ± S.D.)” value [1, 5]?
Answer: 79 ± 9 cells

Question: What about the “osteoclast formation (average number of cells ± S.D.)” value [1, 6] of the same molecule?
Answer: 152 ± 12 cells

Question: And the “induction of osteoclast formation by the compound alone (in words)” value ([1]; Paget's marrow cultures)?
Answer: did not induce the osteoclast formation

Question: What about the “osteoclast formation (average number of cells ± S.D.)” value ([1]; compound alone, 10^−7 M) of the same molecule?
Answer: 3 ± 4 cells

Question: What about the “osteoclast formation (average number of cells ± S.D.)” value ([1]; compound alone, 10^−8 M) of the same molecule?
Answer: 25 ± 4 cells

Question: What about the “osteoclast formation (average number of cells ± S.D.)” value ([1]; compound alone, 10^−9 M) of the same molecule?
Answer: 44 ± 5 cells

Question: And the “effect on basal osteoclast formation (in words)” value [1, 7]?
Answer: inhibited basal osteoclast formation

Question: With `C=C1/C(=C\C=C2/CCC[C@]3(C)[C@@H]([C@H](C)CCCC(C)(C)O)CC[C@@H]23)C[C@@H](O)C[C@@H]1O` [1α,25-dihydroxyvitamin D3, reference compound] as the molecule, how does the “osteoclast formation at 10^−10 M (in words)” value ([1]; 10^−10 M, bone marrow cells from Paget's disease of bone patients) read?
Answer: is induced

Question: And the “lowest concentration inducing osteoclast formation” value ([1]; Paget's marrow cultures)?
Answer: 10^−11 M

Question: What about the “osteoclast formation (average number of cells ± S.D.)” value ([1]; compound alone, 10^−7 M) of the same molecule?
Answer: 205 ± 6 cells

Question: What about the “osteoclast formation (average number of cells ± S.D.)” value ([1]; compound alone, 10^−8 M) of the same molecule?
Answer: 206 ± 16 cells

Question: And the “osteoclast formation (average number of cells ± S.D.)” value ([1]; compound alone, 10^−9 M)?
Answer: 211 ± 25 cells

Question: And the “osteoclast formation (average number of cells ± S.D.)” value ([1]; compound alone, 10^−10 M)?
Answer: 180 ± 15 cells

Question: And the “osteoclast formation (average number of cells ± S.D.)” value ([1]; compound alone, 10^−11 M)?
Answer: 134 ± 14 cells

Question: What about the “serum calcium concentration compared to controls (in words)” value ([2]; 0.25 μg/kg, 24 hours after receiving) of the same molecule?
Answer: significant increased serum calcium concentration

Question: And the “serum Ca concentration” value ([2]; compound alone, 0.25 μg/kg intravenously, 24 hours after administration)?
Answer: 5.42 ± 0.12 mg/100 ml serum

Question: And the “osteoclast formation at 10^−10 M (in words)” value ([3]; 10^−10 M, bone marrow cells of normal persons)?
Answer: is not induced

Question: And the “osteoclast formation (average number of cells ± S.D.)” value ([3]; 10^−7 M)?
Answer: 91 ± 7 cells

Question: What about the “osteoclast formation (average number of cells ± S.D.)” value ([3]; 10^−8 M) of the same molecule?
Answer: 87 ± 12 cells

Question: And the “osteoclast formation (average number of cells ± S.D.)” value ([3]; 10^−9 M)?
Answer: 34 ± 6 cells

Question: What about the “osteoclast formation (average number of cells ± S.D.)” value ([3]; 10^−10 M) of the same molecule?
Answer: 11 ± 2 cells

Question: And the “osteoclast formation (average number of cells ± S.D.)” value ([3]; 10^−11 M)?
Answer: 13 ± 3 cells

Question: What about the “concentration at which osteoclast formation was maximal” value ([3]; normal marrow cultures) of the same molecule?
Answer: 10^−8 M

Question: What does the source list for `C=C1CC(CC(C)C2CCC3C(=CC=C4CC(O)CC(O)C4=C)CCCC32C)OC1=O` (stereo not drawn) [compound 11 (23R isomer)]?
Answer: osteoclast formation (average number of cells ± S.D.) [1, 4]: 18 ± 9 cells; osteoclast formation (average number of cells ± S.D.) [1, 5]: 70 ± 12 cells; osteoclast formation (average number of cells ± S.D.) [1, 6]: 145 ± 8 cells; induction of osteoclast formation by the compound alone (in words) ([1]; Paget's marrow cultures): did not induce the osteoclast formation; osteoclast formation (average number of cells ± S.D.) ([1]; compound alone, 10^−7 M): 1 ± 1 cells; osteoclast formation (average number of cells ± S.D.) ([1]; compound alone, 10^−8 M): 20 ± 3 cells; osteoclast formation (average number of cells ± S.D.) ([1]; compound alone, 10^−9 M): 32 ± 3 cells; effect on basal osteoclast formation (in words) [1, 7]: inhibited basal osteoclast formation

From US20040019024A1, “Use of vitamin d derivatives as bone resorption inhibitors” (priority 2000, published 2004)
